Measured values from ChEMBL document CHEMBL4665730, “Discovery of nonpeptide 3,4-dihydroquinazoline-4-carboxamides as potent and selective sst2 agonists” (Bioorg Med Chem Lett, 2020).
Values belong to the compound of their own block, whether it stands above or below them.

How the values were obtained:
[1] = target: T1, Somatostatin receptor type 2 (Homo sapiens, UniProt P30874); assay: Agonist activity at human SST2 expressed in CHO-K1 cells assessed as reduction in NKH477-induced intracellular cAMP accumulation; format: functional, cell-based
[2] = target: Somatostatin receptor type 4 (Homo sapiens, UniProt P31391); assay: Agonist activity at SST4 (unknown origin)
[3] = target: Somatostatin receptor type 1 (Homo sapiens, UniProt P30872); assay: Agonist activity at SST1 (unknown origin)
[4] = target: T1, Somatostatin receptor type 2; assay: Agonist activity at SST2 (unknown origin)
[5] = target: Somatostatin receptor type 3 (Homo sapiens, UniProt P32745); assay: Agonist activity at SST3 (unknown origin)
[6] = target: Somatostatin receptor type 5 (Homo sapiens, UniProt P35346); assay: Agonist activity at SST5 (unknown origin)
[7] = target: Voltage-gated inwardly rectifying potassium channel KCNH2 (Homo sapiens, UniProt Q12809); assay: Inhibition of human ERG expressed in HEK293 cells; format: cell-based
[8] = target: Somatostatin receptor type 2 (Rattus norvegicus, UniProt P30680); assay: Agonist activity at rat SST2
[9] = Oral bioavailability in Sprague-Dawley rat at 10 mg/kg; format: ADME, organism-based; conditions: in vivo
Cytochrome P450 2C9 = Cytochrome P450 2C9 (Homo sapiens, UniProt P11712); assay: Inhibition of CYP2C9 (unknown origin); format: ADME
Cytochrome P450 2C19 = Cytochrome P450 2C19 (Homo sapiens, UniProt P33261); assay: Inhibition of CYP2C19 (unknown origin); format: ADME
Cytochrome P450 3A4 [10] = target: T2, Cytochrome P450 3A4 (Homo sapiens, UniProt P08684); assay: Inhibition of CYP3A4 (unknown origin) at 10 uM; format: ADME
Cytochrome P450 2D6 = Cytochrome P450 2D6 (Homo sapiens, UniProt P10635); assay: Inhibition of CYP2D6 (unknown origin); format: ADME
Cytochrome P450 3A4 [11] = target: T2, Cytochrome P450 3A4; assay: Inhibition of CYP3A4 (unknown origin); format: ADME

T1 sequence (P30874 whole entry): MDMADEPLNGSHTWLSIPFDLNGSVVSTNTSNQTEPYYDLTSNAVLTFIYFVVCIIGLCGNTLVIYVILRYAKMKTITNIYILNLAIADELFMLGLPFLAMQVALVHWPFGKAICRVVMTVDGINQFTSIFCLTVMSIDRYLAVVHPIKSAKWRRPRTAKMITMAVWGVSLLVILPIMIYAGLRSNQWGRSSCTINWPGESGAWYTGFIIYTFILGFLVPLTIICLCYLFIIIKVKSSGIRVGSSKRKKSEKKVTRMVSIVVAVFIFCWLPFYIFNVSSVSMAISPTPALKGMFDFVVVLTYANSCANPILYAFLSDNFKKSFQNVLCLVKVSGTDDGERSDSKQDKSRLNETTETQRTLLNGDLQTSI
Chain of Somatostatin receptor type 3 (P32745 whole entry): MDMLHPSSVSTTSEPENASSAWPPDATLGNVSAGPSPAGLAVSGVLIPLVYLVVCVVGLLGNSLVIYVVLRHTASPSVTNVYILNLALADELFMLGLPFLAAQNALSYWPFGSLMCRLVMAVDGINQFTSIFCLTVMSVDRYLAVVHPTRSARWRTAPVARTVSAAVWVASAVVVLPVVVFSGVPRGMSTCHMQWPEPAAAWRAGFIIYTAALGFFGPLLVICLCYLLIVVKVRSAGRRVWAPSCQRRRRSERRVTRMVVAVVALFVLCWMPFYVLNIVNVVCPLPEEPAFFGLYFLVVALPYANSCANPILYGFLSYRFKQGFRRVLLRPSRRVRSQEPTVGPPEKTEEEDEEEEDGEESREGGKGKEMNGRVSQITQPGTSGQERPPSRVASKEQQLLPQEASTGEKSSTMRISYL
Chain of Somatostatin receptor type 5 (P35346 whole entry): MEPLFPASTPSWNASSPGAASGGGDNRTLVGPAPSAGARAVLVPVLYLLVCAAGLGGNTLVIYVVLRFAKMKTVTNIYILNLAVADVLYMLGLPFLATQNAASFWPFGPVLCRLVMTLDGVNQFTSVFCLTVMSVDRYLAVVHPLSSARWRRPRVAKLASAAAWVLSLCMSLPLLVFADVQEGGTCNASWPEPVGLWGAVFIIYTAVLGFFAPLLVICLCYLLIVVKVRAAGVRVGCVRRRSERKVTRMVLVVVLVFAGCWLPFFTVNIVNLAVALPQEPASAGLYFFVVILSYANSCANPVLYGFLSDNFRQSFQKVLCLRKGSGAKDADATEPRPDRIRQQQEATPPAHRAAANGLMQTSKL
Chain of Somatostatin receptor type 1 (P30872 whole entry): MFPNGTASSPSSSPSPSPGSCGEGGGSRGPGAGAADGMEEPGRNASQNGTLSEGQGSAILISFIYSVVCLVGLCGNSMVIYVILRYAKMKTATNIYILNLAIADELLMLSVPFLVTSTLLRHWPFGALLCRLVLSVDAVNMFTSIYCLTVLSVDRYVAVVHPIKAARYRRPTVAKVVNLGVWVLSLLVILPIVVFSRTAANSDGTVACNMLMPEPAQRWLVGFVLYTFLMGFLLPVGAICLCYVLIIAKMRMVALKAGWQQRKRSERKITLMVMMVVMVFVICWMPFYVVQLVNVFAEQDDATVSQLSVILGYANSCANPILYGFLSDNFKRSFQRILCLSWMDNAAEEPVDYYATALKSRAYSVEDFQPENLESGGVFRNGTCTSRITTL
Chain of Somatostatin receptor type 4 (P31391 whole entry): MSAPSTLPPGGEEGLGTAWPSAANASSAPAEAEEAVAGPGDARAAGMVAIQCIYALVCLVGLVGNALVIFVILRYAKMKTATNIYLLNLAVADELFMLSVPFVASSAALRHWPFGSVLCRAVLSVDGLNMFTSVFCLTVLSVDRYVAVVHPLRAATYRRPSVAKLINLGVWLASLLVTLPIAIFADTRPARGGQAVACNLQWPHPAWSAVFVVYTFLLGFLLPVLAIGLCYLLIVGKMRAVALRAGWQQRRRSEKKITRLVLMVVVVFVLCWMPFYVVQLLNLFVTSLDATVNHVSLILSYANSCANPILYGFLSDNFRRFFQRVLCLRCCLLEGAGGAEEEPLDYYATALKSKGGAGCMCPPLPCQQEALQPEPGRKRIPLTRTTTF
Chain of Voltage-gated inwardly rectifying potassium channel KCNH2 (Q12809 whole entry): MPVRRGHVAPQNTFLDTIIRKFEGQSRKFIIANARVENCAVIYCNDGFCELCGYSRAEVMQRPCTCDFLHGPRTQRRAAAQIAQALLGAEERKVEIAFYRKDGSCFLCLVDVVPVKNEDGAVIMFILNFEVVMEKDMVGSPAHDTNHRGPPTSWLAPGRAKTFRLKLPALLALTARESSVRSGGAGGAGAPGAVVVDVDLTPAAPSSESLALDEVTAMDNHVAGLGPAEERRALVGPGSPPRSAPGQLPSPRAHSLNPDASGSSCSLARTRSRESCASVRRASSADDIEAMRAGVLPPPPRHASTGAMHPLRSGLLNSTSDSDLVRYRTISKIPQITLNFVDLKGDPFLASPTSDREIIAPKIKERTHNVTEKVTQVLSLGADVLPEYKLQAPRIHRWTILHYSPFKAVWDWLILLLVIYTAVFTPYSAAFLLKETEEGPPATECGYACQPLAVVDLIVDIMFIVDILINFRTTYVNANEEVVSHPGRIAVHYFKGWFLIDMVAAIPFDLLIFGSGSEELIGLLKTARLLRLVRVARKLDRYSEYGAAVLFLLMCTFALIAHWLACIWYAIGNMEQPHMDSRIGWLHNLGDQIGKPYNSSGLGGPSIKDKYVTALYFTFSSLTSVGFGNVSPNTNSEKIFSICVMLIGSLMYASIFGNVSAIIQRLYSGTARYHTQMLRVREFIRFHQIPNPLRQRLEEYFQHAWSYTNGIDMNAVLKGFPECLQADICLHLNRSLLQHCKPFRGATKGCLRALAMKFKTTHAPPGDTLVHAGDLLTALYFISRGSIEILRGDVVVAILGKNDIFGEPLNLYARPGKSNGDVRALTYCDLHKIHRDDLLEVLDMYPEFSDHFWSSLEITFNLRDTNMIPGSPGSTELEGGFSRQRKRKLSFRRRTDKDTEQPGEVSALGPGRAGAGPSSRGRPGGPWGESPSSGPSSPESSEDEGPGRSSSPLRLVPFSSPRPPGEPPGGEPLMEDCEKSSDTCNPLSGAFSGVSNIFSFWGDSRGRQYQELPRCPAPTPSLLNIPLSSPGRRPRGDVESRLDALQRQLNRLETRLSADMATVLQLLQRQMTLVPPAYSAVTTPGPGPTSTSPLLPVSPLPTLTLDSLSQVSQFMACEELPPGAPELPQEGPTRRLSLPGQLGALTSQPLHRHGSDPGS
T2 sequence (P08684 whole entry): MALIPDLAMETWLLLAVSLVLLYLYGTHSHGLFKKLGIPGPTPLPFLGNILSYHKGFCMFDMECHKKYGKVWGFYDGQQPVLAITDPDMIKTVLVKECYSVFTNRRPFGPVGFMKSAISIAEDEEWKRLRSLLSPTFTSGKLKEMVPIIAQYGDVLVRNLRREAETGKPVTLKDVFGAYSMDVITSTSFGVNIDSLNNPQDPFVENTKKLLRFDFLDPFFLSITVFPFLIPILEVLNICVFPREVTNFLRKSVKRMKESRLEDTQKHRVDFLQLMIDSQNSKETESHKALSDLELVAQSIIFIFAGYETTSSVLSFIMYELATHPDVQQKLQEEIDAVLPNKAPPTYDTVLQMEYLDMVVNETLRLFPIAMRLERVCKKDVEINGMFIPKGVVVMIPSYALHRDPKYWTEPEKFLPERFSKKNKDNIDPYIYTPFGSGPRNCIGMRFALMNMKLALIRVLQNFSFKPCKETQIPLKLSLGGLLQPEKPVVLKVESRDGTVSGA
Chain of Cytochrome P450 2D6 (P10635 whole entry): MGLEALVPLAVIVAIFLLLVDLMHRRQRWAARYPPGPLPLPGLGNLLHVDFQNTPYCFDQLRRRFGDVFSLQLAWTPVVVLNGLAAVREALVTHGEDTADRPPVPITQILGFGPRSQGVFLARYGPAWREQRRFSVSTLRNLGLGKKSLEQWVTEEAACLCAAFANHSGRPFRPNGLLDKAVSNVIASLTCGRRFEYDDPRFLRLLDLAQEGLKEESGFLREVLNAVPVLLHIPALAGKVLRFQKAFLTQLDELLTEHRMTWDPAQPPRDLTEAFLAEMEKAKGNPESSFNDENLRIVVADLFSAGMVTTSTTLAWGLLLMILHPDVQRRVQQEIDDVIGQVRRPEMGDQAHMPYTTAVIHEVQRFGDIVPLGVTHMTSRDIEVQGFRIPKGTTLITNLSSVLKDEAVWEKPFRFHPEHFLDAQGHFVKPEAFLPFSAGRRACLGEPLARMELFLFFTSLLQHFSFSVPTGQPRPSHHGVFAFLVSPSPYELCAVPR
Chain of Cytochrome P450 2C19 (P33261 whole entry): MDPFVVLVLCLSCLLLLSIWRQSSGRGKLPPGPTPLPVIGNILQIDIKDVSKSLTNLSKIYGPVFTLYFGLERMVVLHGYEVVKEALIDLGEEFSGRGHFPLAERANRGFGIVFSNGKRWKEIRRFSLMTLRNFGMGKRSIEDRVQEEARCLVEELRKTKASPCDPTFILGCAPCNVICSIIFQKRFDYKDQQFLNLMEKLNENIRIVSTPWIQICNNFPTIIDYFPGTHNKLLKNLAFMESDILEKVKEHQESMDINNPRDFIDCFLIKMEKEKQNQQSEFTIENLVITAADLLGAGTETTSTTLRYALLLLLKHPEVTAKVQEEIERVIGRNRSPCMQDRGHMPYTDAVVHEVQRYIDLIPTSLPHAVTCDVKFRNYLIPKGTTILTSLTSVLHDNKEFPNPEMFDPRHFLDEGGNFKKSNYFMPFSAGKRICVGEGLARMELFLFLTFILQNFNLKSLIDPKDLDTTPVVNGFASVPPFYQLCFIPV
Chain of Somatostatin receptor type 2 (Rattus norvegicus, UniProt P30680) (P30680 whole entry): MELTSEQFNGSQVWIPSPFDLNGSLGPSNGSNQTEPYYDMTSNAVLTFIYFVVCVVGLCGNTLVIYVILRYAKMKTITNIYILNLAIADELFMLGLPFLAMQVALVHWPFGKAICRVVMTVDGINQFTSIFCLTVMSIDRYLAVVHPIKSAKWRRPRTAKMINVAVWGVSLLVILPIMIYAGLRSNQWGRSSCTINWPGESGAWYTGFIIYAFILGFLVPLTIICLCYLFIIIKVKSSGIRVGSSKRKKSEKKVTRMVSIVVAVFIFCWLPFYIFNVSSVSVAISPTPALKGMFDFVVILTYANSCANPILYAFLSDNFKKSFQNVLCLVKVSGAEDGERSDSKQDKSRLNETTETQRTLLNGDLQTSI

EC50 ([1]; read-out: EC50): 11 nM
Compound: CC[C@H](N)CN(C)C(=O)C1c2cc(-c3cccc(O)c3)c(Cl)cc2N=CN1c1cc(C)cc(C)c1 (stereo not given in full)

EC50 ([1]; read-out: EC50): 1.3 nM
EC50 [2]: 631 nM
EC50 [3]: > 1000 nM
EC50 [4]: 1.26 nM
EC50 [5]: 3.98 nM
Compound: Cc1cc(Cl)cc(N2C=Nc3cc(C)c(-c4cc(F)cc(C#N)c4)cc3C2C(=O)N(C)C[C@@H]2CCCN2)c1 (stereo not given in full)

EC50 ([1]; read-out: EC50): 3.7 nM
Compound: Cc1cc(Cl)cc(N2C=Nc3cc(C)c(-c4cc(F)cc(F)c4)cc3C2C(=O)N(C)C[C@@H]2CCCN2)c1 (stereo not given in full)

EC50 ([1]; read-out: EC50): 4.6 nM
Compound: Cc1cc(Cl)cc(N2C=Nc3cc(C)c(-c4ccc5[nH]c(=O)[nH]c5c4)cc3C2C(=O)N(C)C[C@@H]2CCCN2)c1 (stereo not given in full)

EC50 ([1]; read-out: EC50): 0.12 nM
EC50 [2]: 251 nM
EC50 [3]: > 1000 nM
EC50 [6]: > 1000 nM
EC50 [4]: 0.126 nM
EC50 [5]: 7.94 nM
Compound: Cc1cc(Cl)cc(N2C=Nc3cc(C)c(-c4cc(O)cc(F)c4)cc3C2C(=O)N(C)C[C@@H]2CCCN2)c1 (stereo not given in full)
IC50 ([7]; read-out: IC50): < 1000 nM
IC50 ([7]; read-out: pIC50 (converted)): 631 nM

EC50 ([1]; cho-k1, read-out: EC50): > 1000 nM
EC50 ([1]; read-out: pEC50 (converted)): > 1000 nM
Compound: Cc1cc(Cl)cc(N2C=Nc3cc(C)c(-c4cccc(-c5nnn[nH]5)c4)cc3C2C(=O)N(C)C[C@@H]2CCCN2)c1 (stereo not given in full)

EC50 ([1]; read-out: EC50): 5.4 nM
Compound: Cc1cc(Cl)cc(N2C=Nc3cc(C)c(-c4cccc(C#N)c4)cc3C2C(=O)N(C)C[C@@H]2CCCN2)c1 (stereo not given in full)

EC50 ([1]; read-out: EC50): 2.1 nM
Compound: Cc1cc(Cl)cc(N2C=Nc3cc(C)c(-c4cc(F)ccc4O)cc3C2C(=O)N(C)C[C@@H]2CCCN2)c1 (stereo not given in full)

EC50 ([1]; read-out: EC50): 56 nM
Compound: Cc1cc(Cl)cc(N2C=Nc3cc(C)c(-c4ccccc4)cc3C2C(=O)N(C)C[C@@H]2CCCN2)c1 (stereo not given in full)

EC50 ([1]; read-out: EC50): 0.36 nM
Compound: Cc1cc(Cl)cc(N2C=Nc3cc(C)c(-c4cc(O)cc(C#N)c4)cc3C2C(=O)N(C)C[C@@H]2CCCN2)c1 (stereo not given in full)

EC50 ([1]; read-out: EC50): 130 nM
Compound: Cc1cc(Cl)cc(N2C=Nc3cc(C)c(-c4cccc(NS(C)(=O)=O)c4)cc3C2C(=O)N(C)C[C@@H]2CCCN2)c1 (stereo not given in full)

EC50 ([1]; read-out: EC50): 53 nM
Compound: Cc1cc(Cl)cc(N2C=Nc3cc(C)c(-c4cccc(C(F)(F)F)c4)cc3C2C(=O)N(C)C[C@@H]2CCCN2)c1 (stereo not given in full)

EC50 [8]: 0.54 nM
bioavailability [9]: < 5%
Compound: Cc1cc(Cl)cc(N2C=Nc3cc(C)c(-c4cccc(F)c4O)cc3C2C(=O)N(C)CC2CCCN2)c1 (stereo not given)

EC50 ([1]; read-out: EC50): 11 nM
Compound: Cc1cc(Cl)cc(N2C=Nc3cc(C)c(-c4cncc(C#N)c4)cc3C2C(=O)N(C)C[C@@H]2CCCN2)c1 (stereo not given in full)

EC50 ([1]; read-out: EC50): 39 nM
Compound: Cc1cc(Cl)cc(N2C=Nc3cc(C)c(-c4cccc(Cl)c4)cc3C2C(=O)N(C)C[C@@H]2CCCN2)c1 (stereo not given in full)

EC50 ([1]; read-out: EC50): 8.1 nM
Compound: Cc1cc(Cl)cc(N2C=Nc3cc(C)c(-c4cncc(O)c4)cc3C2C(=O)N(C)C[C@@H]2CCCN2)c1 (stereo not given in full)

inhibition (INH) (Cytochrome P450 2C9): Not Active
EC50 [3]: > 1000 nM
EC50 [6]: > 1000 nM
inhibition (INH) (Cytochrome P450 2C19): Not Active
inhibition (INH) (Cytochrome P450 3A4 [10]): Active
inhibition (INH) (Cytochrome P450 2D6): Not Active
EC50 [5]: 158 nM
Compound: Cc1cc(Cl)cc(N2C=Nc3cc(C)c(-c4cccc(F)c4O)cc3C2C(=O)N(C)C[C@@H]2CCCN2)c1 (stereo not given in full)
IC50 ([7]; read-out: pIC50 (converted)): 5010 nM

EC50 ([1]; read-out: EC50): 0.98 nM
Compound: Cc1cc(F)cc(N2C=Nc3cc(C)c(-c4cccc(O)c4)cc3C2C(=O)N(C)C[C@@H]2CCCN2)c1 (stereo not given in full)

EC50 ([1]; read-out: EC50): 0.33 nM
Compound: Cc1cc(Cl)cc(N2C=Nc3cc(C)c(-c4cccc(O)c4)cc3C2C(=O)N(C)C[C@@H]2CCCN2)c1 (stereo not given in full)

EC50 ([1]; read-out: EC50): 1.3 nM
Compound: Cc1cc(C)cc(N2C=Nc3cc(C)c(-c4cccc(O)c4)cc3C2C(=O)N(C)C[C@@H]2CCCN2)c1 (stereo not given in full)

EC50 ([1]; cho-k1, read-out: EC50): > 1000 nM
EC50 ([1]; read-out: pEC50 (converted)): > 1000 nM
Compound: Cc1cc(C)cc(N2C=Nc3ccc(-c4cccc(O)c4)cc3C2C(=O)N(C)C[C@H](C)N)c1 (stereo not given in full)

EC50 ([1]; read-out: EC50): 6.1 nM
Compound: COc1cc(F)cc(-c2cc3c(cc2C)N=CN(c2cc(C)cc(Cl)c2)C3C(=O)N(C)C[C@@H]2CCCN2)c1 (stereo not given in full)

EC50 ([1]; read-out: EC50): 4.2 nM
Compound: CC[C@H](N)CN(C)C(=O)C1c2cc(-c3cccc(O)c3)c(C)cc2N=CN1c1cc(C)cc(C)c1 (stereo not given in full)

EC50 ([1]; read-out: EC50): 0.15 nM
EC50 [2]: > 1000 nM
IC50 (Cytochrome P450 3A4 [11]): 1000 nM
EC50 [3]: > 1000 nM
EC50 [6]: > 1000 nM
EC50 [4]: 0.158 nM
EC50 [5]: 7.94 nM
Compound: Cc1cc(Cl)cc(N2C=Nc3cc(C)c(-c4cc(F)cc(C(N)=O)c4)cc3C2C(=O)N(C)C[C@@H]2CCCN2)c1 (stereo not given in full)
IC50 ([7]; read-out: pIC50 (converted)): 2510 nM

EC50 ([1]; read-out: EC50): 0.2 nM
EC50 [3]: > 1000 nM
EC50 [4]: 0.2 nM
Compound: Cc1cc(Cl)cc(N2C=Nc3cc(C)c(-c4cc(O)ccc4F)cc3C2C(=O)N(C)C[C@@H]2CCCN2)c1 (stereo not given in full)
IC50 ([7]; read-out: IC50): < 1000 nM
IC50 ([7]; read-out: pIC50 (converted)): 501 nM

EC50 ([1]; read-out: EC50): 170 nM
Compound: Cc1cc(Cl)cc(N2C=Nc3cc(C)c(-c4cnn(C)c4)cc3C2C(=O)N(C)C[C@@H]2CCCN2)c1 (stereo not given in full)

EC50 ([1]; cho-k1, read-out: EC50): > 1000 nM
EC50 ([1]; read-out: pEC50 (converted)): > 1000 nM
Compound: Cc1cc(C)cc(N2C=Nc3cc(Cl)c(-c4cccc(O)c4)cc3C2C(=O)NC[C@H](C)N)c1 (stereo not given in full)
